# Key:
# [1] = tested on: mRNA expression in cardiovascular tissues; conditions: cynomolgus monkey, in vivo, 2 weeks
# Experimental: (§1) Administration of compounds. A two-week oral-gavage treatment with the Cox-2 specific inhibitor COX189 (Lumiracoxib®, Novartis) in comparison with rofecoxib (Vioxx®, Merck), and celecoxib (Celebrex®, Pharmacia/Pfizer), and with the nonselective NSAID, diclofenac (Voltaren®, Novartis) was performed. […] The test items were administered daily at doses of 100 mg/kg/day, except Vioxx® which was administered at 50 mg/kg/day.
# (§2) Gene expression profiles. After a period of time (e.g., four weeks) of compound/drug administration, the treated animals are necropsied. 120 tissues are dissected and rapidly snap-frozen for genomics analysis. Organ samples are isolated for histopathological examinations and for gene expression localizations, such as by in situ hybridization.
# (§3) Gene expression profiles have been generated using the Affymetrix microarray technology. (i) RNA extraction and purification: Briefly, total RNA was obtained by acid guanidinium thiocyanate-phenol-chloroform extraction (Trizol®, Invitrogen Life Technologies, San Diego, Calif.) from each frozen tissue section and the total RNA was then purified on an affinity resin (Rneasy®, Qiagen) according to the manufacturer's instructions. Total RNA was quantified by the absorbance at λ=260 nm (A260 nm) and the purity was estimated by the ratio A260 nm/A280 nm. Integrity of the RNA molecules was confirmed by non-denaturing agarose gel electrophoresis. RNA was stored at −80° C. until analysis. […] (ii) GeneChip® experiment: All GeneChip® experiments were conducted in the Genomics Factory EU following recommendations by the manufacturer of the GeneChip® system (Affymetrix, Expression Analysis Technical Manual (Affymetrix, Santa Clara, Calif., 2005). Human U133A genome arrays were used for transcript expression analysis. Double stranded cDNA was synthesized with a starting amount of approximately 5 μg full-length total RNA using the Superscript Choice System (Invitrogen Life Technologies) in the presence of a T7-(dT) 24 DNA oligonucleotide primer. Following synthesis, the cDNA was purified by phenol/chloroform/isoamyl alcohol extraction and ethanol precipitation. The purified cDNA was then transcribed in vitro using the BioArray® High Yield RNA Transcript Labeling Kit (ENZO) in the presence of biotinylated ribonucleotides form biotin labelled cRNA. The labelled cRNA was then purified on an affinity resin (Rneasy, Qiagen), quantified and fragmented. An amount of approximately 10 μg labelled cRNA was hybridized for approximately 16 hours at 45° C. to an expression probe array. The array was then washed and stained twice with streptavidin-phycoerythrin (Molecular Probes) using the GeneChip Fluidics Workstation 400 (Affymetrix). The array was then scanned twice using a confocal laser scanner (GeneArray Scanner®, Agilent) resulting in one scanned image. This resulting “.dat-file” was processed using the MASS program (Affymetrix) into a “.cel-file”. The “.cel file” was then transferred to tan Affymetrix GeneChip Laboratory Information Management System (LIMS) database, which is connected to a UNIX Sun Solaris server through a network filing system that allows for the average intensities for all probes cells (CEL file) to be downloaded into an Oracle database (NPGN). Raw data was converted to expression levels using a “target intensity” of 100. […] The data were checked for quality and loaded in the GeneSpring® software versions 5.0 (Silicon Genetics, Calif., US) for statistical analysis.
# (§4) Quality control analysis of transcriptome data: The following quality measures were analysed for each sample: Scaling factor, background, percent present calls, AFFX-GAPDH 3′: AFFX-GAPDH 5′-ratio, AFFX-GAPDH 3′ variance, AFFX-Beta-actin 3′: AFFX-Beta-actin 5′-ratio.
# [2] = tested on: mRNA expression in cardiovascular tissues; experiment: Affymetrix GeneChip mRNA expression profiling of monkey tissues (iliac vein, pulmonary vein, aorta, carotid artery, heart) after two-week oral-gavage treatment; conditions: iliac vein; group average (Vioxx without A60055)
# Experimental: as §1, §2, §3, §4
smiles,measurement,setting,value
Cc1ccc(-c2cc(C(F)(F)F)nn2-c2ccc(S(N)(=O)=O)cc2)cc1 [Celebrex],ICSBP1 (204057_at) avg fold change vs control,[1],1.6 fold
same,IFI27 (202411_at) avg fold change vs control,[1],3.3 fold
same,IFI30 (201422_at) avg fold change vs control,[1],1.3 fold
same,IFI44 (214453_s_at) avg fold change vs control,[1],1.3 fold
same,IFIT1 (203153_at) avg fold change vs control,[1],0.8 fold
same,IFIT2 (217502_at) avg fold change vs control,[1],1.1 fold
same,IFIT4 (204747_at) avg fold change vs control,[1],0.8 fold
same,IFITM2 (201315_x_at) avg fold change vs control,[1],1.0 fold
same,IFITM3 (212203_x_at) avg fold change vs control,[1],1.1 fold
same,IGF1 (209541_at) avg fold change vs control,[1],0.9 fold
same,IGFBP4 (201508_at) avg fold change vs control,[1],0.6 fold
same,IL1A (208200_at) avg fold change vs control,[1],0.4 fold
same,IL2RG (204116_at) avg fold change vs control,[1],3.8 fold
same,IL27RA (205926_at) avg fold change vs control,[1],1.1 fold
same,INDO (210029_at) avg fold change vs control,[1],1.6 fold
same,INPP5D (203332_s_at) avg fold change vs control,[1],1.6 fold
same,ITGB2 (202803_s_at) avg fold change vs control,[1],1.1 fold
same,JAK1 (214377_s_at) avg fold change vs control,[1],0.9 fold
same,KLKB1 (206541_at) avg fold change vs control,[1],1.1 fold
same,LCK (204890_s_at) avg fold change vs control,[1],3.2 fold
same,LCP2 (205270_s_at) avg fold change vs control,[1],1.9 fold
same,LILRB1 (207857_at) avg fold change vs control,[1],1.0 fold
same,LILRB1 (211100_x_at) avg fold change vs control,[1],1.4 fold
same,LILRB3 (208594_x_at) avg fold change vs control,[1],1.1 fold
same,LILRB3 (210225_x_at) avg fold change vs control,[1],1.3 fold
same,LY86 (205859_at) avg fold change vs control,[1],1.5 fold
same,LY96 (206584_at) avg fold change vs control,[1],1.4 fold
same,LYN (210754_s_at) avg fold change vs control,[1],1.5 fold
same,MAF (209348_s_at) avg fold change vs control,[1],1.3 fold
same,PCOLCE (202465_at) avg fold change vs control,[1],0.7 fold
same,PLCL2 (216217_at) avg fold change vs control,[1],1.0 fold
same,PLSCR1 (202446_s_at) avg fold change vs control,[1],1.1 fold
same,PRC1 (218009_s_at) avg fold change vs control,[1],1.1 fold
same,PRG1 (201858_s_at) avg fold change vs control,[1],1.0 fold
same,PRG1 (201859_at) avg fold change vs control,[1],1.2 fold
same,PTPN22 (206060_s_at) avg fold change vs control,[1],2.5 fold
same,PTPRC (207238_s_at) avg fold change vs control,[1],2.5 fold
same,SOCS3 (206360_s_at) avg fold change vs control,[1],0.9 fold
same,STAT1 (209969_s_at) avg fold change vs control,[1],2.7 fold
same,STAT1 (AFFX-HUMISGF3A/M97935_5_at) avg fold change vs control,[1],0.9 fold
same,STAT1 (AFFX-HUMISGF3A/M97935_MA_at) avg fold change vs control,[1],1.3 fold
same,STAT1 (AFFX-HUMISGF3A/M97935_MB_at) avg fold change vs control,[1],1.2 fold
same,TAPBP (208829_at) avg fold change vs control,[1],1.1 fold
same,TCTEL1 (201999_s_at) avg fold change vs control,[1],1.0 fold
same,TLR1 (210176_at) avg fold change vs control,[1],1.3 fold
same,TLR2 (204924_at) avg fold change vs control,[1],0.8 fold
same,TNFAIP3 (202643_s_at) avg fold change vs control,[1],1.5 fold
same,TNFAIP3 (202644_s_at) avg fold change vs control,[1],1.7 fold
same,TNFSF6 (210865_at) avg fold change vs control,[1],1.4 fold
same,TRGC2 (211144_x_at) avg fold change vs control,[1],1.2 fold
same,TRGC2 (216920_s_at) avg fold change vs control,[1],1.6 fold
same,VCAM1 (203868_s_at) avg fold change vs control,[1],1.9 fold
same,XCL1 (206366_x_at) avg fold change vs control,[1],2.0 fold
same,XCL1 (214567_s_at) avg fold change vs control,[1],3.5 fold
same,XLKD1 (219059_s_at) avg fold change vs control,[1],1.5 fold
same,cig5 (213797_at) avg fold change vs control,[1],1.3 fold
same,"ACE (209749_s_at) mRNA expression, Avg fold changes vs control",[2],0.8 fold
same,"B2M (216231_s_at) mRNA expression, Avg fold changes vs control",[2],1.3 fold
same,"BCL6 (215990_s_at) mRNA expression, Avg fold changes vs control",[2],0.9 fold
same,"BTN2A2 (205298_s_at) mRNA expression, Avg fold changes vs control",[2],1.2 fold
same,"CCR1 (205098_at) mRNA expression, Avg fold changes vs control",[2],0.9 fold
same,"CD2 (205831_at) mRNA expression, Avg fold changes vs control",[2],1.5 fold
same,"CD48 (204118_at) mRNA expression, Avg fold changes vs control",[2],1.7 fold
same,"CD53 (203416_at) mRNA expression, Avg fold changes vs control",[2],2.3 fold
same,"CDC2 (210559_s_at) mRNA expression, Avg fold changes vs control",[2],1.3 fold
same,"CYBB (203922_s_at) mRNA expression, Avg fold changes vs control",[2],1.7 fold
same,"EMP3 (203729_at) mRNA expression, Avg fold changes vs control",[2],0.9 fold
same,"FCER1G (204232_at) mRNA expression, Avg fold changes vs control",[2],1.3 fold
same,"FCGR2A (203561_at) mRNA expression, Avg fold changes vs control",[2],1.4 fold
same,"FCGRT (218831_s_at) mRNA expression, Avg fold changes vs control",[2],1.0 fold
same,"FKBP11 (219117_s_at) mRNA expression, Avg fold changes vs control",[2],0.8 fold
same,"FKBP11 (219118_at) mRNA expression, Avg fold changes vs control",[2],1.0 fold
same,"GP6 (220336_s_at) mRNA expression, Avg fold changes vs control",[2],1.1 fold
same,"HCLS1 (202957_at) mRNA expression, Avg fold changes vs control",[2],1.5 fold
same,"HEM1 (209734_at) mRNA expression, Avg fold changes vs control",[2],1.5 fold
same,"HLA-A (210514_x_at) mRNA expression, Avg fold changes vs control",[2],1.1 fold
same,"HLA-A (213932_x_at) mRNA expression, Avg fold changes vs control",[2],1.3 fold
same,"HLA-C (211799_x_at) mRNA expression, Avg fold changes vs control",[2],1.0 fold
same,"HLA-E (200904_at) mRNA expression, Avg fold changes vs control",[2],1.2 fold
same,"HLA-F (221978_at) mRNA expression, Avg fold changes vs control",[2],1.2 fold
same,"ICAM1 (202637_s_at) mRNA expression, Avg fold changes vs control",[2],0.9 fold
same,"IL13RA1 (210904_s_at) mRNA expression, Avg fold changes vs control",[2],0.9 fold
same,"PIK3CD (203879_at) mRNA expression, Avg fold changes vs control",[2],1.7 fold
same,"PRKCBP1 (209048_s_at) mRNA expression, Avg fold changes vs control",[2],1.2 fold
same,"PRKCBP1 (209049_s_at) mRNA expression, Avg fold changes vs control",[2],1.2 fold
same,"PTPN7 (204852_s_at) mRNA expression, Avg fold changes vs control",[2],2.0 fold
same,"SIGIRR (52940_at) mRNA expression, Avg fold changes vs control",[2],1.2 fold
same,"STAT1 (200887_s_at) mRNA expression, Avg fold changes vs control",[2],1.1 fold
same,"STAT1 (AFFX-HUMISGF3A/M97935_3_at) mRNA expression, Avg fold changes vs control",[2],1.1 fold
same,"STAT3 (208992_s_at) mRNA expression, Avg fold changes vs control",[2],1.0 fold
same,"TCIRG1 (204158_s_at) mRNA expression, Avg fold changes vs control",[2],0.9 fold
same,"THY1 (213869_x_at) mRNA expression, Avg fold changes vs control",[2],0.8 fold
same,"TMPO (209753_s_at) mRNA expression, Avg fold changes vs control",[2],0.9 fold
same,"TMSB10 (217733_s_at) mRNA expression, Avg fold changes vs control",[2],1.1 fold
same,"TNFRSF21 (218856_at) mRNA expression, Avg fold changes vs control",[2],1.5 fold
same,"TRB@ (210915_x_at) mRNA expression, Avg fold changes vs control",[2],2.5 fold
same,"TRB@ (213193_x_at) mRNA expression, Avg fold changes vs control",[2],2.4 fold

# Reference: US9738932B2, “Biomarkers for cardiovascular side-effects induced by cox-2 inhibitory compounds” (FIRALIS SAS, priority 2005, dated 2017)
